From article PMC8510591, “A comprehensive study of the basic formulation of supersaturated self-nanoemulsifying drug delivery systems (SNEDDS) of albendazolum” (Drug Delivery, 2021)
Values after ≈ are worked out from the molar mass of the structure shown.

What was measured:
[1] = ABZ solubility in oils, surfactants and co-surfactants; assay type: physicochemical; conditions: 37 °C, 72 h
Description: The solubility tests were carried out on various oils, surfactants, and co-surfactants. The solubility determination method previously used by Meena et al. ([2012]) was employed. Excess ABZ was added to a volume of 1 g of the tested oil, surfactants, and co-surfactants, and placed in well-stoppered vials. The vials were agitated for 72 h (specified after determination of the equilibrium time beyond which the solubility is stable) at 37 ± 0.05 °C in a constant temperature water bath until equilibrium was attained. Subsequently, the vial's contents were centrifuged at 4000 rpm for 15 min using an ultracentrifuge to separate the insoluble ABZ. After being diluted with the solvent mixture (methanol and 1 N HCl with 7:3), the supernatants were filtered through a cellulose filter ([…]), and the ultraviolet absorbance of the filtrates was measured using the tested oil diluted with the solvent mixture as a blank to be 248 nm using a UV spectrophotometer. The materials used in the study included sunflower oil, Captex 300, PEG 300. PEG 400, soya oil, olive oil, crodamol oil, corn oil, Lauroglycol FCC, Cremophor EL, Solutol HS15, Labrafac lipophile WL1349, Capmul PG8, SPAN 20, Captex 355, Tween 80, Acrysol […], Labrasol, Cremophor RH40, Acrysol K140, Maisine, Sesame oil, Capmul MCM, Capryol PGMC, and propylene glycol. Results from each experiment were expressed as values in μg/mL.

[2] = ABZ saturated solubility in the selected SNEDDS pre-concentrate and in water; assay type: physicochemical
Description: Excess ABZ was added to keep the glass vials containing 1 g of selected optimized SNEDDS preconcentrate (composed of 5% oleic acid, 65% tween 20, 30% PEG) airtight. The suspension was incubated at 30 ± 0.5 °C in a water bath for 72 h to attain equilibrium (Kang et al., [2012]). The suspension was then centrifuged for 15 min at 4000 rpm, after three days using an ultracentrifuge to eliminate the undissolved ABZ. This was then followed by filtration of the supernatant with a 0.22 µm membrane filter. After the desired dilution with solvent (methanol and 1 N HCl with 7:3) was achieved, the ultraviolet absorbance of the filtrate was measured using a UV spectrophotometer at 248 nm. Blanks of plain SNEDDS not containing any drugs diluted in the same ratio were used to cancel interference from the SNEDDS preconcentrate. The experiment was repeated thrice, and the average drug saturated solubility in mg/mL of the selected SNEDDS was calculated.

CCCSc1ccc2nc(NC(=O)OC)[nH]c2c1 [ABZ, Albendazolum]
Total solubility ([1]; in Acrysol K140): 46.60 µg g^–1
Total solubility ([1]; in Acrysol K150): 46.18 µg g^–1
Total solubility ([1]; in Capmul MCM): 5.59 µg g^–1
Total solubility ([1]; in Capmul PG8): 139.88 µg g^–1
Total solubility ([1]; in Capryol PGMC): 179.48 µg g^–1
Total solubility ([1]; in Captex 300): 40.23 µg g^–1
Total solubility ([1]; in Captex 355): 99.37 µg g^–1
Total solubility ([1]; in Cremophor EL): 179.76 µg g^–1
Total solubility ([1]; in Cremophor RH40): 46.72 µg g^–1
Total solubility ([1]; in Crodamol oil): 23.61 µg g^–1
Total solubility ([1]; in Labrafac lipophile WL1349): 96.78 µg g^–1
Total solubility ([1]; in Labrasol): 188.13 µg g^–1
Total solubility ([1]; in Lauroglycol FCC): 186.05 µg g^–1
Total solubility ([1]; in Maisine): 18.43 µg g^–1
Total solubility ([1]; in Oleic acid): 734.20 µg g^–1
Total solubility ([1]; in Olive oil): 0.79 µg g^–1
Total solubility ([1]; in PEG 300): 340.45 µg g^–1
Total solubility ([1]; in PEG 600): 498.90 µg g^–1
Total solubility ([1]; in Propylene glycol): 194.47 µg g^–1
Total solubility ([1]; in SPAN 20): 185.79 µg g^–1
Total solubility ([1]; in Sesame oil): 3.73 µg g^–1
Total solubility ([1]; in Solutol HS15): 193.44 µg g^–1
Total solubility ([1]; in Soya oil): 3.62 µg g^–1
Total solubility ([1]; in Sunflower oil): 0.43 µg g^–1
Total solubility ([1]; in Tween 20): 210.45 µg g^–1
Total solubility ([1]; in Tween 80): 172.19 µg g^–1
average increase of solubility, SNEDDS pre-concentrate vs water ([2]; SNEDDS pre-concentrate relative to water): 89 fold
solubility at 72 h ([2]; SNEDDS preconcentrate 5% oleic acid, 65% tween 20, 30% PEG, 30 °C, 72 h): 125 µg/mL (≈ 471 µM)
solubility ([2]; water): 1.4 µg/mL (≈ 5.28 µM)
